Earlier results as cited in patent publication US20110155130A1, “Dronabinol Treatment for Migraines” (Unimed Pharmaceuticals, Inc., priority 2005, published 2011).

Conditions: 5 mg to 20 mg oral doses of THC; randomized controlled clinical trials

## CCCCCc1cc(O)c2c(c1)OC(C)(C)[C@@H]1CCC(C)=C[C@@H]21 [THC, (6a R-trans)-6a,7,8,10a-tetrahydro-6,6,9-trimethyl-3-pentyl-6H-dibenzo[b,d]pyran-1-ol]
  effectiveness compared with codeine: as effective as 50 mg to 120 mg of codeine
